According to patent US12052991B2, “Substituted pyridinyloxybenzenes and salts thereof and use thereof as herbicidal agents” (Bayer Aktiengesellschaft, priority 2018, dated 2024):

What was measured:
Type in all cases: in vivo
[1] = system: Matricaria inodora (MATIN); test: Herbicidal post-emergence action (Table B7); conditions: rated visually after about 3 weeks, 100% = plants have died, 0% = like control plants
Outline: (§1)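 Application rates of 1280 or 320 g/ha were tested post-emergence on one-leaf-stage greenhouse plants in sandy loam, using WP or EC formulations with 0.5% additive at 600 L/ha. Activity was rated visually against untreated plants about 3 weeks later.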

[2] = system: Alopecurus myosuroides (ALOMY); test: Herbicidal post-emergence action (Table B9); conditions: rated visually after about 3 weeks, 100% = plants have died, 0% = like control plants
Outline: as §1

[3] = system: Digitaria sanguinalis (DIGSA); test: Herbicidal post-emergence action (Table B10); conditions: visual rating about 3 weeks after treatment, 100% = plants have died, 0% = like control plants
Outline: as §1

Bassia scoparia (KCHSC) [4] = test: Herbicidal post-emergence action (Table B11); conditions: visual rating about 3 weeks after treatment, 100% = plants have died, 0% = like control plants
Outline: as §1

Veronica persica (VERPE) [5] = test: Herbicidal post-emergence action (Table B12); conditions: visual rating about 3 weeks after treatment, 100% = plants have died, 0% = like control plants
Outline: as §1

[6] = system: Matricaria inodora (MATIN); test: Herbicidal pre-emergence action, test C (Table C7); conditions: visual scoring after about 3 weeks, 100% = plants have died, 0% = like control plants
Outline: (§2)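 After sowing weed seeds into sandy loam and covering them, the soil surface was treated with aqueous WP or EC preparations containing 0.5% additive, 600 L/ha, at 1280 or 320 g/ha. Scoring was visual, in percent against untreated, at about 3 weeks.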

[7] = system: Digitaria sanguinalis (DIGSA); test: Herbicidal pre-emergence action, test C (Table C10); conditions: visual scoring after about 3 weeks, 100% = plants have died, 0% = like control plants
Outline: as §2

Bassia scoparia (KCHSC) [8] = test: Herbicidal pre-emergence action, test C (Table C11); conditions: visual scoring vs untreated controls
Outline: as §2

Veronica persica (VERPE) [9] = test: Herbicidal pre-emergence action, test C (Table C12); conditions: visual scoring vs untreated controls
Outline: as §2

[10] = system: Digitaria sanguinalis (DIGSA); test: Herbicidal pre-emergence action, test D, single sowings (Table D2); conditions: 80 g/ha; scored visually after about 3 weeks; 100% = plants have died, 0% = like control plants
From the text: (§3) Seeds of monocotyledonous and dicotyledonous weed plants were laid out in plastic or organic plant pots (single sowings with one species of mono- or dicotyledonous weed plant per pot) and covered with soil. The compounds of the invention, formulated in the form of wettable powders (WP) or as emulsion concentrates (EC), were then applied to the surface of the covering soil as aqueous suspension or emulsion with addition of 0.5% additive at a water application rate equivalent to 600 l/ha (converted). After the treatment, the pots were placed in a greenhouse and kept under good growth conditions for the test plants. After about 3 weeks, the effect of the preparations was scored visually in comparison with untreated controls as percentages. For example, 100% activity=the plants have died, 0% activity=like control plants. Tables D1 to D8 below show the effects of selected compounds of the general formula (I) according to Table 1 on various harmful plants and an application rate corresponding to 80 g/ha, which were obtained by the experimental procedure mentioned above.

[11] = system: Amaranthus retroflexus (AMARE); test: Herbicidal pre-emergence action, test D, single sowings (Table D5); conditions: dosage 80 g/ha, scored after about 3 weeks
From the text: as §3

[12] = system: Matricaria inodora (MATIN); test: Herbicidal pre-emergence action, test D, single sowings (Table D6); conditions: dosage 80 g/ha, scored after about 3 weeks
From the text: as §3

viola tricolor (VIOTR) = test: Herbicidal pre-emergence action, test D, single sowings (Table D7); conditions: dosage 80 g/ha, scored after about 3 weeks
From the text: as §3

Veronica persica (VERPE) [13] = test: Herbicidal pre-emergence action, test D, single sowings (Table D8); conditions: dosage 80 g/ha, scored after about 3 weeks
From the text: as §3

[14] = system: corn (ZEAMX, var. Aventura); test: Pre-emergence crop plant compatibility (Table E1); conditions: dosage 80 g/ha, scored after about 3 weeks, 0% = like control plants
From the text: as §3, with “crop” for “weed”, “placed” for “laid out”, “pots” for “pots (single sowings with one species of mono- or dicotyledonous weed plant per pot)”, “plants.” for “plants. Tables D1 to D8 below show the effects of selected compounds of the general formula (I) according to Table 1 on various harmful plants and an application rate corresponding to 80 g/ha, which were obtained by the experimental procedure mentioned above.”

[15] = system: soybean (GLXMA, var. Sultana); test: Pre-emergence crop plant compatibility (Table E1); conditions: dosage 80 g/ha, scored after about 3 weeks, 0% = like control plants
From the text: as §3, with “crop” for “weed”, “placed” for “laid out”, “pots” for “pots (single sowings with one species of mono- or dicotyledonous weed plant per pot)”, “plants.” for “plants. Tables D1 to D8 below show the effects of selected compounds of the general formula (I) according to Table 1 on various harmful plants and an application rate corresponding to 80 g/ha, which were obtained by the experimental procedure mentioned above.”

[16] = system: wheat (TRZAS, var. Triso); test: Pre-emergence crop plant compatibility (Table E1); conditions: dosage 80 g/ha, scored after about 3 weeks, 0% = like control plants
From the text: as §3, with “crop” for “weed”, “placed” for “laid out”, “pots” for “pots (single sowings with one species of mono- or dicotyledonous weed plant per pot)”, “plants.” for “plants. Tables D1 to D8 below show the effects of selected compounds of the general formula (I) according to Table 1 on various harmful plants and an application rate corresponding to 80 g/ha, which were obtained by the experimental procedure mentioned above.”

[17] = system: soybean (GLXMA, var. Sultana), wheat (TRZAS, var. Triso) and corn (ZEAMX, var. Aventura); test: Pre-emergence crop plant compatibility, summary of Table E1; conditions: applied pre-emergence to soybean, wheat and corn at 80 g of active ingredient per hectare; summary in words
From the text: as §3, with “crop” for “weed”, “placed” for “laid out”, “pots” for “pots (single sowings with one species of mono- or dicotyledonous weed plant per pot)”, “plants.” for “plants. Tables D1 to D8 below show the effects of selected compounds of the general formula (I) according to Table 1 on various harmful plants and an application rate corresponding to 80 g/ha, which were obtained by the experimental procedure mentioned above.”

Row | SMILES | Post-emergence action against Matricaria inodora (MATIN) ([1]; 1280 g/ha) [%] | Post-emergence action against Alopecurus myosuroides (ALOMY) ([2]; 320 g/ha) [%] | Post-emergence action against Alopecurus myosuroides (ALOMY) ([2]; 1280 g/ha) [%] | Post-emergence action against Digitaria sanguinalis (DIGSA) ([3]; dosage 320 g/ha) [%] | Post-emergence action against Digitaria sanguinalis (DIGSA) ([3]; dosage 1280 g/ha) [%] | Post-emergence action against Bassia scoparia (KCHSC) (Bassia scoparia (KCHSC) [4]; dosage 320 g/ha) [%] | Post-emergence action against Bassia scoparia (KCHSC) (Bassia scoparia (KCHSC) [4]; dosage 1280 g/ha) [%] | Post-emergence action against Veronica persica (VERPE) (Veronica persica (VERPE) [5]; dosage 320 g/ha) [%] | Post-emergence action against Veronica persica (VERPE) (Veronica persica (VERPE) [5]; dosage 1280 g/ha) [%] | Pre-emergence action against Matricaria inodora (MATIN) ([6]; dosage 320 g/ha) [%] | Pre-emergence action against Matricaria inodora (MATIN) ([6]; dosage 1280 g/ha) [%] | Pre-emergence action against Digitaria sanguinalis (DIGSA) ([7]; dosage 320 g/ha) [%] | Pre-emergence action against Digitaria sanguinalis (DIGSA) ([7]; dosage 1280 g/ha) [%] | Pre-emergence action against Bassia scoparia (KCHSC) (Bassia scoparia (KCHSC) [8]; dosage 1280 g/ha) [%] | Pre-emergence action against Veronica persica (VERPE) (Veronica persica (VERPE) [9]; dosage 320 g/ha) [%] | Pre-emergence action against Veronica persica (VERPE) (Veronica persica (VERPE) [9]; dosage 1280 g/ha) [%] | Pre-emergence action against Digitaria sanguinalis (DIGSA) [10] [%] | Pre-emergence action against Amaranthus retroflexus (AMARE) [11] [%] | Pre-emergence action against Matricaria inodora (MATIN) [12] [%] | Pre-emergence action against viola tricolor (VIOTR) (viola tricolor (VIOTR)) [%] | other results
1 | Cc1cccc(Oc2ccc(Cl)cn2)c1-c1cc(C(F)F)no1 [Example 1-18, 5-[2-[(5-Chloro-2-pyridyl)oxy]-6-methylphenyl]-3-(difluoromethyl)isoxazole] | 100 | 100 | 100 | 100 | 100 | 100 | 100 | 100 | 100 | 100 | 100 | 100 | 100 | 90 | 100 | 100 |  |  |  |  | 
2 | Cc1cccc(Oc2ncc(Cl)cc2F)c1-c1cc(C(F)F)no1 [Example 1-20] | 100 | 100 | 100 | 100 | 100 | 100 | 100 | 100 | 100 | 100 | 100 | 90 | 100 | 90 | 100 | 100 |  |  |  |  | 
3 | Fc1cc(Cl)cnc1Oc1ccccc1-c1cc(C(F)F)no1 [Example 1-36] |  | 100 | 100 | 100 | 100 | 100 | 100 | 100 | 100 |  |  | 100 | 100 | 90 | 100 | 100 | 100 | 100 | 100 | 100 | Pre-emergence action against Veronica persica (VERPE) (Veronica persica (VERPE) [13]): 100%; Crop plant compatibility in pre-emergence, ZEAMX (damage to corn) [14]: 20%; Crop plant compatibility in pre-emergence, GLXMA (damage to soybean) [15]: 10%; Crop plant compatibility in pre-emergence, TRZAS (damage to wheat) [16]: 0%; crop plant tolerance in comparison with structurally similar pyrimidinyloxybenzenes (US 2016/333000 Ex. Nos. 53 and 144) [17]: significantly improved crop plant tolerance
4 | FC(F)c1cc(-c2ccccc2Oc2ccc(Cl)cn2)on1 [Example 1-35] |  | 100 | 100 | 90 | 100 | 100 | 100 | 100 | 100 | 90 | 100 |  | 100 | 90 | 100 | 100 | 100 | 100 | 80 | 90 | Pre-emergence action against Veronica persica (VERPE) (Veronica persica (VERPE) [13]): 100%; Crop plant compatibility in pre-emergence, ZEAMX (damage to corn) [14]: 10%; Crop plant compatibility in pre-emergence, GLXMA (damage to soybean) [15]: 20%; Crop plant compatibility in pre-emergence, TRZAS (damage to wheat) [16]: 0%; crop plant tolerance in comparison with structurally similar pyrimidinyloxybenzenes (US 2016/333000 Ex. Nos. 53 and 144) [17]: significantly improved crop plant tolerance
5 | Fc1cccc(Oc2ccc(Br)cn2)c1-c1cc(C(F)F)no1 [Example 1-40] | 100 | 100 | 100 | 100 | 100 | 100 | 100 | 100 | 100 | 100 | 100 | 100 | 100 | 100 | 100 | 100 |  |  |  |  | Post-emergence action against Matricaria inodora (MATIN) ([1]; 320 g/ha): 100%; Pre-emergence action against Bassia scoparia (KCHSC) (Bassia scoparia (KCHSC) [8]; dosage 320 g/ha): 100%
